Test results published in patent publication US12336996B2, “Drug combination containing TLR7 agonist” (Chia Tai Tianqing Pharmaceutical Group Co., Ltd., priority 2019, dated 2025).

Experiments:
HBV [1] = test: AAV mice study: serum HBV DNA copy number by fluorescence quantitative PCR; assay type: in vivo, C57BL/6 mice; details: for HBV DNA (result in words): over a 42-day treatment period, AAV mice; for HBV DNA replication level in mouse serum (treatment period): rAAV8-1.3HBV mice, i.g., ETV 0.0032 (1 W) & 0.001 (2-6 W) mg/kg qd, TLR7 agonist 20 mg/kg tiw
Experimental: Male C57BL/6 mice (Shanghai Slac Laboratory Animal Co., Ltd.) aged 6-8 weeks were taken, and rAAV8-1.3HBV virus (FivePlus Institute of Molecular Medicine, Beijing) was injected into the C57BL/6 mice via tail veins at a dose of 1×10^11 vg. Blood was collected from the orbit at week 2 and week 4 after the virus was injected. Serum was separated, and HBV DNA copy number in serum were measured to determine whether the model was successfully constructed or not. Mice were randomized according to the HBV DNA copy number into vehicle control group, TLR7 agonist group (20 mg/kg, tiw), entecavir (ETV) group (0.0032 (week 1, 1 W) & 0.001 (week 2-6, 2-6 W) mg/kg, qd), and TLR7 agonist and ETV combination group, each group containing 6 mice. The mice in each group were administered intragastrically for 6 weeks, and the administration was stopped for 3 week. Blood was collected from the orbit at weeks 1, 2, 3, 4, 5 and 6 during the administration period and weeks 1, 2 and 3 during the withdrawal period, and serum was separated. The HBV DNA copy number was determined by fluorescence quantitative PCR.
• i. Vehicle control group; • ii. Monotherapy group: entecavir; • iii. Monotherapy group: TLR7 agonist; • iv. Combination group (combo): TLR7 agonist and entecavir;
The test results were evaluated by Jin equation. The Jin equation is a modified method based on the Burgi method, and is also referred to the probability addition method:
The combination efficacy is calculated according to the following equation: q=EA+B/(EA+EB−EA×EB)
wherein EA denotes the efficacy of drug A monotherapy; EB denotes the efficacy of drug B monotherapy; EA+B denotes the efficacy of the combination of drugs A and B.
The significance of q: 0.85 to 1.15 indicates simple addition; 1.15 to 20 indicates enhancement; greater than 20 indicates significant enhancement; 0.85 to 0.55 indicates antagonism; less than 0.55 indicates significant antagonism. The q value takes the absolute value.

HBV [2] = test: Example 2: clinical study of TLR7 agonist combined with entecavir in chronic hepatitis B patients; assay type: in vivo, human; details: TLR7 agonist 1.0-1.8 mg once weekly, entecavir 0.5 mg/day, 24 weeks
Experimental: [drawing 54] (2-butoxy-7-(4-(pyrrolidin-1-ylmethyl) benzyl)-5H-pyrrolo[3,2-d]pyrimidin-4-amine); see WO2016023511 for the preparation method. The compound was prepared into tablets with strength of 0.2 mg or 0.5 mg. • Entecavir: commercially available entecavir tablets with strength of 0.5 mg. Commercially available entecavir tablets include, but are not limited to, entecavir dispersible tablets (Runzhong). • Placebo: a placebo for TLR7 agonist. 2. Enrolled Subjects
The subject should meet all of the following criteria: • 1) Male patients or non-pregnant, non-lactating female patients aged 18-65 years (inclusive); • 2) Serum virology: persistent positive serum HBsAg for 6 months or more, or with evidence of chronic hepatitis B for 6 months; • 3) Previously treated patients: historical HBV DNA inhibition less than the lower limit of normal 24 weeks before enrollment, and HBV DNA inhibition defined as <69 IU/mL determined by a Roche reagent during screening; Fibroscan ≤9.0 Kpa (fasting), and ALT≤5×ULN; • 4) Previously untreated patients: HBV DNA >10^5 copies/mL (or >20000 IU/mL) for HBeAg-positive chronic hepatitis B patients or HBV DNA >10^4 copies/mL (or >2000 IU/mL) for HBeAg-negative patients as determined by Roche's Cobas Taqman real-time quantitative PCR test v2.0, with the lower limit of detection being 20 IU/mL; Fibroscan ≤12.4 Kpa (fasting), and 1×ULN≤ALT≤5×ULN. […] 3. […]

[3] = withdrawal period day 49, after 6 weeks of i.g. administration
[4] = withdrawal period day 56, after 6 weeks of i.g. administration
[5] = withdrawal period day 63, after 6 weeks of i.g. administration

| Compound | HBV DNA (result in words) (HBV [1]) | HBV DNA replication level in mouse serum (treatment period) (HBV [1]; treatment period day 0) | HBV DNA replication level in mouse serum (treatment period) (HBV [1]; treatment period day 7) | HBV DNA replication level in mouse serum (treatment period) (HBV [1]; treatment period day 14) | HBV DNA replication level in mouse serum (treatment period) (HBV [1]; treatment period day 21) | HBV DNA replication level in mouse serum (treatment period) (HBV [1]; treatment period day 28) | HBV DNA replication level in mouse serum (treatment period) (HBV [1]; treatment period day 35) | HBV DNA replication level in mouse serum (treatment period) (HBV [1]; treatment period day 42) | HBV DNA replication level in mouse serum (withdrawal period) (HBV [1]; [3]) | HBV DNA replication level in mouse serum (withdrawal period) (HBV [1]; [4]) | HBV DNA replication level in mouse serum (withdrawal period) (HBV [1]; [5]) | HBV DNA replication (result in words) (HBV [2]) |
| --- | --- | --- | --- | --- | --- | --- | --- | --- | --- | --- | --- | --- |
| CCCCOc1nc(N)c2[nH]cc(Cc3ccc(CN4CCCC4)cc3)c2n1 [TLR7 agonist, 2-butoxy-7-(4-(pyrrolidin-1-ylmethyl)benzyl)-5H-pyrrolo[3,2-d]pyrimidin-4-amine] | significantly reduced | 7.53 ± 0.15 logic lU/mL | 6.64 ± 1.33 logic lU/mL | 4.55 ± 1.41 logic lU/mL | 4.13 ± 0.67 logic lU/mL | 3.64 ± 0.21 logic lU/mL | 3.61 ± 0.24 logic lU/mL | 3.41 ± 0.33 logic lU/mL | 4.37 ± 0.48 log10 IU/mL | 4.86 ± 0.41 log10 IU/mL | 5.26 ± 0.39 log10 IU/mL | achieved inhibition |
| C=C1[C@H](CO)[C@@H](O)C[C@@H]1n1cnc2c(=O)[nH]c(N)nc21 [entecavir, 2-amino-9-[(1S,3R,4S)-4-hydroxy-3-hydroxymethyl-2-methylenecyclopentyl]-1,9-dihydro-6H-purin-6-one] | significantly reduced | 7.53 ± 0.15 logic lU/mL | 5.27 ± 0.18 logic lU/mL | 5.66 ± 0.14 logic lU/mL | 5.96 ± 0.28 logic lU/mL | 5.34 ± 0.43 logic lU/mL | 5.62 ± 0.36 logic lU/mL | 6.44 ± 0.46 logic lU/mL | 6.97 ± 0.72 log10 IU/mL | 7.32 ± 0.73 log10 IU/mL | 7.33 ± 0.80 log10 IU/mL | inhibitory effects |
